According to patent US20040214803A1, “Use of vitamin d3 analogue for the treatment of autoimmune diabetes” (priority 2001, published 2004):

Key:
Assay type in all cases: in vivo, mouse
CD4+ T cells [1] = experiment: Intracellular cytokine production by CD4+ cells from treated NOD mice (PMA and ionomycin, flow cytometry)
Procedure: After removal of all visible pancreatic lymph nodes, pancreata were individually digested in 3 ml HBSS containing 1 mg/ml collagenase IV (Sigma), by shaking (200 rpm) at 37° C. for 15 min. Single cell suspensions were collected after diluting the enzyme with ice-cold HBSS containing 5% FCS (FETAL CALF SERUM) and removal of the aggregates by settling for 2 min on ice. Aggregates were further digested with collagenase IV at 0.5 mg/ml for 10 min, and at 0.25 mg/ml for 6 min. Single cell suspensions were washed three times, and passed over a MASC Pre-separation filter (Miltenyi Biotec) to remove cell aggragetes and clumps. Single cell suspensions were incubated with anti-CD4 mAb-coated Microbeads (Miltenyi Biotec) and applied onto Mini-MACS columns (Miltenyi Biotec). This procedure yielded a positive fraction containing CD4^+ cells. Immediately after purification cells were stimulated with PMA (PHORBOL MYRISTIC ACETATE) and ionomycin in complete medium, fixed, and stained the next day for intracellular production of cytokines.
Cells were stained for IFN-γ, IL-4, IL-10 and IL-2 as previously described (Trembleau, S., et al. Eur J Immunol. 1997,27:2330-2339). Reagents for intracytoplasmic staining contained 1% FCS, 0.5% saponin (Sigma), and 0.1% sodium azide. All incubations were performed at room temperature. Cells were washed, pre-incubated for 10 min with PBS(phosphate buffered saline)/FCS/saponin, and then incubated with FITC(fluorescein isothiocyanate)-labeled rat anti-mouse IFN-γ (XMG1.2) and PE (phycoerythrin)-labeled rat anti-IL-2 (JE56-5H4), rat anti-mouse IL-4 (11B11), or PE-labeled rat anti-mouse IL-10 (JES5-16E3). Isotype controls were FITC- and PE-labeled rat IgG1 (R3-34). After 30 min, cells were washed twice with PBS/FCS/saponin and then with PBS containing 5% of FCS without saponin to allow membrane closure. The cell surface was then stained with CyChrome-labeled anti-CD4 (L3T4) for 15 min at room temperature. Analysis was performed with a FACScan flow cytometer (Becton Dickinson, Mountain View, Calif.) equipped with CellQuest software, and 10,000 events were acquired.
To identify mechanisms accounting for the reduced type 1 DM development in 1,25-dihydroxy-16,23Z-diene-26,27-hexafluoro-19-nor vitamin D3-treated NOD mice, the cytokines produced by CD4^+ T cells in the spleen, pancreatic lymph node and pancreas-infiltrating cells of […] NOD mice, treated from 8 to 16 weeks of age with Compound A or vehicle were analyzed.
FIG. 4. (page 4/9) Cytokine production by CD4^+ cells from spleen, pancreatic lymph node and pancreas-infiltrating cells. Spleen (A), pancreatic lymph node (B) and pancreas-infiltrating (C) CD4^+ cells were obtained from untreated 8 week-old or 20 week-old NOD mice treated 5×/week p.o. from 8 to 16 weeks of age with vehicle or with 0.03 μg/Kg Compound A. Positively selected CD4^+ cells (2×10^5 cells/well) were stimulated with PMA and ionomycin and analyzed by flow cytometry for IFN-γ (abscissa) and IL-2, IL-4 or IL-10 (ordinate) production. Acquisition was performed on CD4^+ cells. Percentage of positive cells, set according to the isotype-matched controls (not shown), are shown in the top corner of each quadrant. Dot plots are from a representative experiment out of four performed. Bar graphs represent the mean ±SE of four independent experiments using pooled cells from 3 to 4 mice. The P values were calculated by Mann-Whitney U test (* indicates P<0.05 vs. 8 week-old NOD mice).

CD4+ T cells [2] = experiment: Flow cytometric analysis of surface molecules on CD4+ cells from treated NOD mice
Procedure: Single-cell suspensions of pancreas-infiltrating, spleen or lymph node cells were incubated with anti-CD4 mAb-coated Microbeads (Miltenyi Biotec) and applied onto Mini-MACS columns (Miltenyi Biotec). Stainings were performed in the presence of 100 μg/ml mouse IgG using the following mAbs, all from PharMingen: CyChrome-labeled Streptavidin, FITC-labeled anti-CD4 (L3T4), PE-labeled anti-CD45RB (16A), PE-labeled anti-CD62L (MEL-14), PE-labeled anti-CD38 (rat IgG2a), FITC-labeled anti-CD69 (H1.2F3), and biotinylated anti-CD25 (7D4). Cells were analyzed with a FACScan flow cytometer equipped with CellQuest software (Becton Dickinson, Mountain View, Calif.).
Therefore, we analyzed the frequency of CD4^+ CD25^+ cells in 1,25-dihydroxy-16,23Z-diene-26,27-hexafluoro-19-nor vitamin D3-treated NOD mice. No difference was found in the percentage of splenic CD4^+ cells expressing CD25, CD38, CD69, CD62L and CD45RB in 20 week-old Compound A or vehicle-treated and untreated 8 week-old NOD mice (FIG. 6A).
FIG. 6. (page 6/9) Compound A treatment enhances the frequency of CD4^+ CD25^+ cells. Positively selected CD4^+ T cells were stained with mAbs specific for the indicated surface molecules and analyzed by flow cytometry. Acquisition was performed on CD4^+ cells. Bars represent the percent of spleen and lymph node CD4^+ T cells expressing the indicated surface molecules from untreated 8 week-old (□) or 20 week-old NOD mice treated 5×/week from 8 to 16 weeks of age with vehicle ( ? ) or with 0.03 μg/Kg Compound A (▪). Data are presented as mean ±SE of three separate experiments. The P values were calculated by Mann-Whitney U test (* indicates P<0.05 vs. 8 week-old NOD mice).

aortic allografts = experiment: Aortic allograft histology: inflammatory cell infiltrate; details: 0.03 μg/kg p.o., 60 days after transplantation
Procedure: Histology: Segments of aorta grafts were snap-frozen in Tissue Tek (Miles Laboratories, Elkhart, Ind.), and stored at −80° C. Frozen sections, 5 μm thick, were stained with hematoxylin and eosin, or with biotinylated mAbs against CD4, CD8, B220, CD11b or CD11c (all purchased from PharMingen, San Diego, Calif.), followed by streptavidin-peroxidase conjugate. 3-amino-9-ethylcarbazole (DAKO, Carpenteria, Calif.) was used as chromogen, and hematoxylin as a counterstain. The effect of Compound A in preventing chronic rejection was evaluated using the aortic graft model in the mouse. Graft combinations were syngeneic or allogeneic. In allogeneic combinations, recipient mice were treated orally with vehicle alone or containing Compound A (0.03 μg/kg) fives times per week, from day 0 to day 30 relative to the time of grafting. Aortic grafts were analyzed 60 days after transplantation.

[3] = CD4+ T cells from pancreatic lymph nodes, vs 30 week-old vehicle-treated or 8 week-old NOD mice

In the case of `C[C@H](C/C=C\C(O)(C(F)(F)F)C(F)(F)F)C1=CC[C@H]2/C(=C/C=C3C[C@@H](O)C[C@H](O)C3)CCC[C@]12C` [Compound A, 1,25-dihydroxy-16,23Z-diene-26,27-hexafluoro-19-nor vitamin D3], the “reduction of IFN-γ-producing cells” value (CD4+ T cells [1]; [3]) is reported as 3 fold, the “reduction of IL-2 producing cells” value (CD4+ T cells [1]; [3]) is reported as 10 fold and the IL-4-producing cells (CD4+ T cells [1]; CD4+ cells, means of three experiments, 0.7±0.2% in 8 weeks old, 0.9±0.2% vehicle) is reported as 2.5±0.3%. For the same molecule, the IFN-γ-producing cells (CD4+ T cells [1]; CD4+ pancreas-infiltrating cells, compared with vehicle-treated mice) was “similarly lower”, the “IL-10-producing CD4+ cells” value (CD4+ T cells [1]; mouse, in vivo) was “No increase” and the “percentage of splenic CD4+ cells expressing CD25, CD38, CD69, CD62L and CD45RB” value (CD4+ T cells [2]; 20 week-old mice, vs vehicle-treated and untreated 8 week-old) was “No difference”. The “percentage of CD45RBhigh” value (CD4+ T cells [2]; pancreatic lymph node CD4+ cells, 8 week-old 75.9±0.5%, vehicle 74.2±1.6) was 65.1±0.3%, the “percentage of CD4+ CD25+” value (CD4+ T cells [2]; pancreatic lymph node cells, 8 week-old 11.6±0.1%, vehicle 13.0±0.1) was 20.1±0.1% and the “percentage of CD4+ CD38+” value (CD4+ T cells [2]; pancreatic lymph node cells, 8 week-old 11.8±0.1%, vehicle 10.6±1.0) was 25.2±0.2%. For the same molecule, the “percentage of CD45RBlow CD4+ cells” value (CD4+ T cells [2]; pancreatic lymph node cells, 8 week-old 12.65±0.43%, vehicle 34.8±0.01) was 24.1±0.22%, the “double positive CD25+ CD38+ CD4+ cells” value (CD4+ T cells [2]; pancreatic lymph node, 8 week-old 8%, vehicle 7%) was 17% and the “CD4, CD8 and B cells in the grafts” value (aortic allografts) was “complete absence”. The “number of macrophages and dendritic cells in the grafts” value (aortic allografts; vs vehicle) was “profoundly reduced number”.
